From ChEMBL document CHEMBL1151759 (J Med Chem, 2008)
One block for each molecule: values may come before it.

How the values were obtained:
[1] = biological target: T1, Neuropeptide Y receptor type 1 (Homo sapiens, UniProt P25929); assay: Displacement of [3H]UR-MK114 from neuropeptide Y1 receptor in human SK-N-MC cells; format: cell-based
T1 sequence (P25929 whole entry): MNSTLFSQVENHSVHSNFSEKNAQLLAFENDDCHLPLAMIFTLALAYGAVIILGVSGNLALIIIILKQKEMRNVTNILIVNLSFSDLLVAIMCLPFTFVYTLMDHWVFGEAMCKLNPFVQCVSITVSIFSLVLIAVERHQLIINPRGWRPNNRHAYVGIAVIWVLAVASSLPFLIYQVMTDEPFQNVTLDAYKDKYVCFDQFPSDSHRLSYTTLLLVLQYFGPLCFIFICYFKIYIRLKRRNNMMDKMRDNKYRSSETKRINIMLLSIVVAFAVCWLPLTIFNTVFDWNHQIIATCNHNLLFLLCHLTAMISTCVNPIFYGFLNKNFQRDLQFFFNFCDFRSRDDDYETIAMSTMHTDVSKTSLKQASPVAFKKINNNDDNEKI

[2] = biological target: T1, Neuropeptide Y receptor type 1; assay: Displacement of [3H]propionyl-pNPY from neuropeptide Y1 receptor in human SK-N-MC cells; format: cell-based
[3] = biological target: T1, Neuropeptide Y receptor type 1; assay: Binding affinity to neuropeptide Y1 receptor in human MCF7 cells by kinetic experiment; format: cell-based
[4] = Chemical stability of compound assessed as half life; format: physicochemical
[5] = biological target: T1, Neuropeptide Y receptor type 1; assay: Binding affinity to neuropeptide Y1 receptor in human MCF7 cells; format: cell-based
[6] = biological target: T1, Neuropeptide Y receptor type 1; assay: Binding affinity to neuropeptide Y1 receptor in human SK-N-MC cells by kinetic experiment; format: cell-based
[7] = biological target: T1, Neuropeptide Y receptor type 1; assay: Binding affinity to neuropeptide Y1 receptor in human SK-N-MC cells; format: cell-based
[8] = biological target: T2, Neuropeptide Y receptor type 1 (Homo sapiens) (UniProt P25929)
T2 sequence (whole entry): T1 sequence (P25929 whole entry)

[9] = biological target: T3, Neuropeptide Y receptor type 5 (Homo sapiens, UniProt Q15761); assay: Displacement of Dy-635-pNPY from human neuropeptide Y5 receptor expressed in HEC-1B cells by flow cytometric assay; format: cell-based
T3 sequence (Q15761 whole entry): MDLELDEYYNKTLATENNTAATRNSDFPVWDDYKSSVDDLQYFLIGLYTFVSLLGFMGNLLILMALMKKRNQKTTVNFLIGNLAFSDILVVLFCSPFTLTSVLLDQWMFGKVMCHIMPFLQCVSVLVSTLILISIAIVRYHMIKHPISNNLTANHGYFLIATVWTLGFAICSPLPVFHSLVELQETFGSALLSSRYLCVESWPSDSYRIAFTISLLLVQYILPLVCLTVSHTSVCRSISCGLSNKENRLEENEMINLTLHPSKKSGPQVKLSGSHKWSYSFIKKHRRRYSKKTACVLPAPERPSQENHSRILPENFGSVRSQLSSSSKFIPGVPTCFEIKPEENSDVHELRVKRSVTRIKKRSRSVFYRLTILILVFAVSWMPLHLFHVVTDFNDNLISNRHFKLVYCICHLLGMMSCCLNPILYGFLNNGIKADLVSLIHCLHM

[10] = biological target: T4, Neuropeptide Y receptor type 2 (Homo sapiens, UniProt P49146); assay: Displacement of Dy-635-pNPY from human neuropeptide Y2 receptor expressed in CHO cells coexpressing Galphaqi5 and aequorin by flow cytometric assay; format: cell-based
T4 sequence (P49146 whole entry): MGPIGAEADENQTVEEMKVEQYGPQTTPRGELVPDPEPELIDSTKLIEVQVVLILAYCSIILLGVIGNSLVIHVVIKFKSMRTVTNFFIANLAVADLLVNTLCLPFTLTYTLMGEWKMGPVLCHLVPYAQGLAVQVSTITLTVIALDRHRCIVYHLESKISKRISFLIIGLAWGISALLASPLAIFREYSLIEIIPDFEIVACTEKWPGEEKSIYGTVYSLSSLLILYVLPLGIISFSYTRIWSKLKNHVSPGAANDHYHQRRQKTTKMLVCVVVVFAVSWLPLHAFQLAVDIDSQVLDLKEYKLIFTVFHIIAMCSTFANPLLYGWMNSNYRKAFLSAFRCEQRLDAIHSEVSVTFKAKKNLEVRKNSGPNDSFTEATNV

[11] = biological target: Neuropeptide Y receptor type 4 (Homo sapiens, UniProt P50391); assay: Displacement of Cy5-[K4]-hPP from human neuropeptide Y4 receptor expressed in CHO cells coexpressing Galphaqi5 and aequorin by flow cytometric assay; format: cell-based
Sequence of Neuropeptide Y receptor type 4 (P50391 whole entry): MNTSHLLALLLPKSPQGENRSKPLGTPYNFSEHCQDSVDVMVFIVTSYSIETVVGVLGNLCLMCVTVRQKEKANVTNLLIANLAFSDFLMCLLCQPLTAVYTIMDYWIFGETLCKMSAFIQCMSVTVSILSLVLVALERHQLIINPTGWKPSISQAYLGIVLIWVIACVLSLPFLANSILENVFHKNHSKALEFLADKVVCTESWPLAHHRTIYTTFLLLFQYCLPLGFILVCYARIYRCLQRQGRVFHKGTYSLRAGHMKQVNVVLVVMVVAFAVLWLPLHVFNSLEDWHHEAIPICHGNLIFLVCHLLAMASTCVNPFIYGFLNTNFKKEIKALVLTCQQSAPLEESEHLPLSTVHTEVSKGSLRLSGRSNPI

SMILES: COC(=O)NC(N)=NCCC[C@@H](NC(=O)C(c1ccccc1)c1ccccc1)C(=O)NCc1ccc(O)cc1
Ki [2]: 33 nM

SMILES: [3H]CC([3H])C(=O)/N=C(/N)NCCC[C@@H](NC(=O)C(c1ccccc1)c1ccccc1)C(=O)NCc1ccc(O)cc1 (some centres undefined)
Kd [3]: 1.1 nM
half-life [4]: 2.2 min
Kd [5]: 2.9 nM
Kd [6]: 1.1 nM
Kd [7]: 1.2 nM

SMILES: CCOC(=O)CNC(=O)/N=C(/N)NCCC[C@@H](NC(=O)C(c1ccccc1)c1ccccc1)C(=O)NCc1ccc(O)cc1
Ki [1]: 0.1 nM

SMILES: CCC/N=C(/N)NCCC[C@@H](NC(=O)C(c1ccccc1)c1ccccc1)C(=O)NCc1ccc(O)cc1
Ki [2]: 27 nM

SMILES: CCC(=O)/N=C(/N)NCCC[C@@H](NC(=O)C(c1ccccc1)c1ccccc1)C(=O)NCc1ccc(O)cc1
IC50 [1]: 2.24 nM
Kd [1]: 1.2 nM
Ki [1]: 1 nM
Ki [5]: 1.2 nM
pKb [8]: 9.1
Ki [9]: > 2000 nM
Ki [10]: > 10000 nM
Ki [11]: > 10000 nM

Second part, the molecule after the results:

Ki [1]: 0.1 nM
SMILES: CCNC(=O)/N=C(/N)NCCC[C@@H](NC(=O)C(c1ccccc1)c1ccccc1)C(=O)NCc1ccc(O)cc1

Ki [2]: 4.5 nM
SMILES: CCOC(=O)NC(N)=NCCC[C@@H](NC(=O)C(c1ccccc1)c1ccccc1)C(=O)NCc1ccc(O)cc1

Ki [2]: 12 nM
SMILES: CC(=O)/N=C(/N)NCCC[C@@H](NC(=O)C(c1ccccc1)c1ccccc1)C(=O)NCc1ccc(O)cc1
